EP0626016B1, “[…] […]” (BRITISH TECHNOLOGY GROUP LIMITED, priority 1992, dated 1993)

Columns and labels:
[1] = tested on: HRP Type VIII; experiment: PBBA enhancement with different peroxidase enzymes (Example 4); format: biochemical, horseradish
Experimental: (§1) Stock solutions (1mg/ml in 0.1mol/l Tris buffer, pH 8.6) of horseradish peroxidase Type VII, Type VIII and Arthromyces ramosus peroxidase (Sigma) were prepared. The luminol-hydrogen peroxide reagent was prepared as described previously. Luminol-hydrogen peroxide reagent (100µl, 1:10 dilution), either 40µl of PBBA (0.01mg/ml in 0.1mol/l Tris buffer, pH 8.6) or as a control, 40µl of Tris buffer (0.1mol/l, pH 8.6), and 10µl of HRP Type VII (1:50,000 dilution, 2ng) were added to a cuvette. The reagents were mixed and the light emission was recorded after 5 minutes using a Berthold Biolumat LB9500C.
(§2) The above experiment was repeated and the HRP Type VII was replaced by HRP Type VIII (2ng) or Arthromyces ramosus peroxidase (20pg).

[2] = biological target: T1, HRP (Armoracia rusticana, UniProt P00433); experiment: Effect of fixed PBBA on light output with varying amounts of HRP (Example 1, part 2); format: biochemical, horseradish; settings: for Signal (with PBBA): 40µl of PBBA 0.01mg/ml, after 5 minutes; for Signal: Background ratio: with PBBA
T1 construct: purchased Sigma Chemical Co
T1 sequence (P00433 31-338): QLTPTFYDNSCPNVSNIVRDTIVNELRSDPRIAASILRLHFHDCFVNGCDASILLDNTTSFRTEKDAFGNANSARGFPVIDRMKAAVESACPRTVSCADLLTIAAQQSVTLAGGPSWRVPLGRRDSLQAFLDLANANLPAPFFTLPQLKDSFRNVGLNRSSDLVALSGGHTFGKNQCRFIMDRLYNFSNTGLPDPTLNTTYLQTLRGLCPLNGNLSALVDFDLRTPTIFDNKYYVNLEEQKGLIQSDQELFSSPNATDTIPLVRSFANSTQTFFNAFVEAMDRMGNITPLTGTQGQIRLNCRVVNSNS
Experimental: The above experiment was repeated this time keeping the amount of PBBA enhancer fixed and varying the amount of HRP. The reagents used were 100µl of luminol-hydrogen peroxide, either (a) 40µl of PBBA (0.01mg/ml in 0.lmol/l Tris buffer, pH 8.6) or (b) as a control, 40µl of Tris buffer (0.1mol/l, pH 8.6) and various amounts of HRP (range 5µl to 40µl of 1:50,000 dilution of a lmg/ml stock solution).
The reagents were mixed and light output recorded after 5 minutes on a Berthold Biolumat LB9500C. […] An improved signal:background ratio is shown by comparing results with HRP present with the zero HRP results.

[3] = biological target: T2, Anti-mouse IgG (whole molecule) peroxidase conjugate (Armoracia rusticana, UniProt P00433); experiment: Assay of peroxidase-antibody conjugate utilizing PBBA (Example 5); format: biochemical; settings: for Signal (with PBBA): 40µl of PBBA 0.01 mg/ml; for Signal: Background: with PBBA
T2 sequence (P00433 31-338 limits assumed): T1 sequence (P00433 31-338)
Experimental: Anti-mouse IgG (whole molecule) peroxidase conjugate (Sigma Chemical Co.) was diluted (1:5000) in 0.1 mol/l Tris buffer (pH 8.6). The luminol-hydrogen peroxide was prepared as described previously. The following reagents were added to a cuvette: 100µl of luminol-hydrogen peroxide (1:10 dilution), either 40µl of PBBA (0.01 mg/ml in 0.1 mol/l Tris buffer) or as a control, 40µl of Tris buffer (0.1 mol/l, pH 8.6), and different amounts of anti-mouse IgG (5µl, 10µl, 20µl, 30µl, 40µl). The reagents were mixed and the light emission was measured using a Berthold Biolumat LB9500C.

[4] = biological target: T1, HRP; experiment: Enhanced chemiluminescent anti-oxidant assay using PBBA (Example 6); format: biochemical, horseradish
Experimental: The luminol-peroxide reagent (100µl), PBBA (40µl, 1:100 dilution of 1 mg/ml) and HRP (10µl, 1:50,000 dilution of 1mg/ml stock) were mixed together and the light emission measured for 25 minutes. A sample of human serum (2µl, 1:10 dilution in 0.1 mol/l Tris buffer, pH 8.6) was added and the light emission measured for a further 75 minutes.

[5] = tested on: HRP Type VII; experiment: PBBA enhancement with different peroxidase enzymes (Example 4); format: biochemical, horseradish; settings: for Signal Reagent with PBBA: 40µl of PBBA 0.01mg/ml
[6] = biological target: T3, Arthromyces ramosus peroxidase (Arthromyces ramosus, UniProt P28313); experiment: as above; format: biochemical
T3 sequence (P28313 21-364): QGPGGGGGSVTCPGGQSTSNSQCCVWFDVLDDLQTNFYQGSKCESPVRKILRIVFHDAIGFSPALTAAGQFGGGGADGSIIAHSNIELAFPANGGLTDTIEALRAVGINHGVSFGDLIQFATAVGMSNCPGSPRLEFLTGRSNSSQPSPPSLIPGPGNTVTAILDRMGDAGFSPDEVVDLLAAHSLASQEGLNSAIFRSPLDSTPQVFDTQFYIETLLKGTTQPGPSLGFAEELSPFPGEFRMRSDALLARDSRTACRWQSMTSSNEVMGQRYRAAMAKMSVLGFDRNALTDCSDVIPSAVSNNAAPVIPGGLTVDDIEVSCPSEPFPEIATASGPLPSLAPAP
Experimental: as §1, §2

[7] = in the presence of PBBA, result in words

Signal Reagent with PBBA ([1]; HRP Type VIII 2ng, 40µl of PBBA 0.01mg/ml, after 5 minutes): 156,204
Signal: Background ([1]; HRP Type VIII, with PBBA): 5.6
Signal (with PBBA) ([2]; HRP 0 pg): 9,125
Signal (with PBBA) ([2]; HRP 100 pg): 15,861
Signal: Background ratio ([2]; HRP 100 pg): 1.7
Signal (with PBBA) ([2]; HRP 200 pg): 22,895
Signal: Background ratio ([2]; HRP 200 pg): 2.5
Signal (with PBBA) ([2]; HRP 400 pg): 38,495
Signal: Background ratio ([2]; HRP 400 pg): 4.2
Signal (with PBBA) ([2]; HRP 600 pg): 61,491
Signal: Background ratio ([2]; HRP 600 pg): 6.7
Signal (with PBBA) ([2]; HRP 800 pg): 105,972
Signal: Background ratio ([2]; HRP 800 pg): 11.6
light output of the chemiluminescent reaction ([2]; at all concentrations tested, result in words): increased the light output
Signal (with PBBA) ([3]; Anti-mouse IgG-HRP 0 (µl)): 18,832
Signal (with PBBA) ([3]; Anti-mouse IgG-HRP 5 (µl), 1:5000 dilution): 27,665
Signal: Background ([3]; Anti-mouse IgG-HRP 5 (µl)): 1.5
Signal (with PBBA) ([3]; Anti-mouse IgG-HRP 10 (µl), 1:5000 dilution): 32,849
Signal: Background ([3]; Anti-mouse IgG-HRP 10 (µl)): 1.7
Signal (with PBBA) ([3]; Anti-mouse IgG-HRP 20 (µl), 1:5000 dilution): 68,994
Signal: Background ([3]; Anti-mouse IgG-HRP 20 (µl)): 3.7
Signal (with PBBA) ([3]; Anti-mouse IgG-HRP 30 (µl), 1:5000 dilution): 407,087
Signal: Background ([3]; Anti-mouse IgG-HRP 30 (µl)): 21.6
light emission [3, 7]: increased
signal to background ratio for the assay of the HRP conjugate [3, 7]: significantly improved
Light units ([4]; Time 0 minutes, before serum): 5
Light units ([4]; Time 10 minutes, before serum): 16
Light units ([4]; Time 20 minutes, before serum): 68
Light units ([4]; Time 25 minutes, serum added): 88
Light units ([4]; Time 26 minutes, after human serum added): 3
Light units ([4]; Time 30 minutes, after human serum added): 3
Light units ([4]; Time 50 minutes, after human serum added): 5
Light units ([4]; Time 60 minutes, after human serum added): 15
Light units ([4]; Time 70 minutes, after human serum added): 49
Light units ([4]; Time 80 minutes, after human serum added): 60
Light units ([4]; Time 90 minutes, after human serum added): 81
Light units ([4]; Time 100 minutes, after human serum added): 90
lag after which the light emission returns to its original level ([4]; after addition of human serum (2µl, 1:10 dilution)): 34 min
Signal Reagent with PBBA ([5]; Blank (no peroxidase)): 27,820
Signal Reagent with PBBA ([5]; HRP Type VII 2ng, after 5 minutes): 49,703
Signal: Background ([5]; HRP Type VII, with PBBA): 1.8
signal to background ratio ([5]; in all cases (HRP Type VII, Type VIII, Arthromyces ramosus peroxidase), result in words): improved in all cases
Signal Reagent with PBBA ([6]; Arthromyces ramosus peroxidase 20pg, 40µl of PBBA 0.01mg/ml, after 5 minutes): 58,208
Signal: Background ([6]; Arthromyces ramosus peroxidase, with PBBA): 2.1
Compound: OB(O)c1ccc(Br)cc1 [PBBA, para-bromophenylboronic acid]
level of light output ([5]; any of the peroxidases tested (HRP Type VII, Type VIII, Arthromyces ramosus peroxidase), result in words): did not increase the level of light output
